Reference: patent publication US20240391862A1, “(1,4,5-TRISUBSTITUTED-1H-PYRAZOL-3-YL)OXY-2-ALKOXY ALKYL ACIDS AND THEIR DERIVATIVES, THEIR SALTS AND THEIR USE AS HERBICIDAL AGENTS” (Bayer AKtiengesellschaft, priority 2021, published 2024)

Legend:
Experiment in all cases: Post-emergence herbicidal effect, greenhouse pot test
[1] = test system: ALOMY; format: in vivo, Alopecurus myosuroides; conditions: visual rating about 3 weeks after treatment; for pest or weed control at 80 g/ha / pest or weed control at 320 g/ha: Alopecurus myosuroides, 504 h, read-out: Post-emergence effect against ALOMY
Description: (§1) • ALOMY: Alopecurus myosuroides SETVI: Setaria viridis • AVEFA: Avena fatua POLCO: Fallopia convolvulus • AMARE: Amaranthus retroflexus ECHCG: Echinochloa crus-galli • LOLRJ: Lolium rigidum STEME: Stellaria media • VERPE: Veronica persica MATIN: Tripleurospermum inodorum • DIGSA: Digitaria sanguinalis ABUTH: Abutylon threophrasti • TRZAS: Triticum aestivum VIOTR: Viola tricolor • BRSNW: Brassica napus ZEAMX: Zea mays • PHBPU: Ipomoea purpurea GLXMA: Glycine max • ORYSA: Oryza sativa HORMU: Hordeum murinum
(§2) Seeds of monocotyledonous and dicotyledonous weeds and crop plants are placed in sandy loam in plastic or organic planting pots, covered with soil and cultivated in a greenhouse under controlled growth conditions. 2 to 3 weeks after sowing, the trial plants are treated at the one-leaf stage. The compounds of the invention, formulated in the form of wettable powders (WP) or as emulsion concentrates (EC), are then sprayed onto the green parts of the plants as aqueous suspension or emulsion with addition of 0.5% additive at a water application rate of 600 l/ha (converted). After the test plants have been kept in the greenhouse under optimum growth conditions for about 3 weeks, the activity of the preparations is rated visually in comparison to untreated controls. For example, 100% activity=the plants have died, 0% activity=like control plants.
(§3) Tables 20a to 38c below show the effects/crop compatibilities of selected compounds of the general formula (I) on various harmful plants at an application rate corresponding to 20 to 320 g/ha, which were obtained by the trial procedure specified above.

[2] = test system: AMARE; format: in vivo, Amaranthus retroflexus; conditions: visual rating about 3 weeks after treatment; for pest or weed control at 80 g/ha / pest or weed control at 320 g/ha: Amaranthus retroflexus, 504 h, read-out: Post-emergence effect against AMARE
Description: as §1, §2, §3

[3] = test system: AVEFA; format: in vivo, Avena fatua; conditions: visual rating about 3 weeks after treatment; for pest or weed control at 80 g/ha / pest or weed control at 320 g/ha: Avena fatua, 504 h, read-out: Post-emergence effect against AVEFA
Description: as §1, §2, §3

[4] = test system: DIGSA; format: in vivo, Digitaria sanguinalis; conditions: visual rating about 3 weeks after treatment; for pest or weed control at 80 g/ha / pest or weed control at 320 g/ha: Digitaria sanguinalis, 504 h, read-out: Post-emergence effect against DIGSA
Description: as §1, §2, §3

[5] = test system: ECHCG; format: in vivo, Echinochloa crus-galli; conditions: for pest or weed control at 20 g/ha / pest or weed control at 80 g/ha / pest or weed control at 320 g/ha: Echinochloa crus-galli, 504 h; for pest or weed control at 20 g/ha: visual rating about 3 weeks after treatment, read-out: Post-emergence effect against ECHCG; for pest or weed control at 80 g/ha / pest or weed control at 320 g/ha: read-out: Post-emergence effect against ECHCG in %
Description: as §1, §2, §3

[6] = test system: LOLRI; format: in vivo, Lolium rigidum; conditions: Lolium rigidum, 504 h, read-out: Post-emergence effect against LOLRI in %
Description: as §1, §2, §3

[7] = test system: MATIN; format: in vivo, Tripleurospermum inodorum; conditions: for pest or weed control at 20 g/ha / pest or weed control at 80 g/ha / pest or weed control at 320 g/ha: Tripleurospermum inodorum, 504 h, read-out: Post-emergence effect against MATIN in %
Description: as §1, §2, §3

[8] = test system: PHBPU; format: in vivo, Ipomoea purpurea
Description: as §1, §2, §3

[9] = test system: POLCO; format: in vivo, Fallopia convolvulus; conditions: Fallopia convolvulus, 504 h, read-out: Post-emergence effect against POLCO in %
Description: as §1, §2, §3

[10] = test system: SETVI; format: in vivo, Setaria viridis; conditions: for pest or weed control at 80 g/ha / pest or weed control at 20 g/ha / pest or weed control at 320 g/ha: Setaria viridis, 504 h, read-out: Post-emergence effect against SETVI in %
Description: as §1, §2, §3

[11] = test system: VERPE; format: in vivo, Veronica persica; conditions: for pest or weed control at 20 g/ha / pest or weed control at 80 g/ha / pest or weed control at 320 g/ha: Veronica persica, 504 h, read-out: Post-emergence effect against VERPE in %
Description: as §1, §2, §3

[12] = test system: VIOTR; format: in vivo, Viola tricolor; conditions: for pest or weed control at 20 g/ha / pest or weed control at 80 g/ha / pest or weed control at 320 g/ha: Viola tricolor, 504 h, read-out: Post-emergence effect against VIOTR in %
Description: as §1, §2, §3

[13] = test system: ABUTH; format: in vivo, Abutilon theophrasti; conditions: Abutilon theophrasti, 504 h, visual rating about 3 weeks after treatment, read-out: Post-emergence effect against ABUTH
Description: as §1, §2, §3

[14] = Ipomoea purpurea, 504 h, read-out: Post-emergence effect against PHBPU in %
[15] = Ipomoea purpurea, 504 h, 320 g/ha, read-out: Post-emergence effect against PHBPU in %

SMILES | pest or weed control at 80 g/ha [1] [%] | pest or weed control at 80 g/ha [2] [%] | pest or weed control at 80 g/ha [3] [%] | pest or weed control at 80 g/ha [4] [%] | pest or weed control at 20 g/ha [5] [%] | pest or weed control at 80 g/ha [5] [%] | pest or weed control at 320 g/ha [6] [%] | pest or weed control at 20 g/ha [7] [%] | pest or weed control at 80 g/ha [7] [%] | pest or weed control at 80 g/ha [8, 14] [%] | pest or weed control at 320 g/ha [9] [%] | pest or weed control at 80 g/ha [10] [%] | pest or weed control at 20 g/ha [11] [%] | pest or weed control at 20 g/ha [12] [%] | pest or weed control at 80 g/ha [12] [%] | pest or weed control at 80 g/ha [13] [%] | pest or weed control at 320 g/ha [13] [%] | pest or weed control at 320 g/ha ([1]; 320 g/ha) [%] | pest or weed control at 320 g/ha ([2]; 320 g/ha) [%] | pest or weed control at 320 g/ha ([3]; 320 g/ha) [%] | also measured
CCOC(=O)C(OC)Oc1nn(-c2ccccc2F)c(-c2ccc(F)nc2)c1Br (stereo not drawn) [Example I-23] | 90 | 80 | 80 | 90 | 80 | 80 | 90 | 80 | 80 | 80 | 80 | 80 | 80 | 80 | 80 | – | – | – | – | – | Post-emergence effect against ALOMY ([1]; 320 g/ha): 90%; Post-emergence effect against AMARE ([2]; 320 g/ha): 90%; Post-emergence effect against AVEFA ([3]; 320 g/ha): 80%; Post-emergence effect against DIGSA ([4]; 320 g/ha): 90%; Post-emergence effect against ECHCG in % ([5]; 320 g/ha): 90%; Post-emergence effect against MATIN in % ([7]; 320 g/ha): 90%; Post-emergence effect against PHBPU in % ([8]; 320 g/ha): 90%; Post-emergence effect against SETVI in % ([10]; 320 g/ha): 90%; Post-emergence effect against VERPE in % ([11]; 80 g/ha): 90%; Post-emergence effect against VERPE in % ([11]; 320 g/ha): 90%; Post-emergence effect against VIOTR in % ([12]; 320 g/ha): 80%
COC(=O)C(OC)Oc1nn(-c2ccccc2)c(-c2ccc(F)nc2)c1Br (stereo not drawn) [Example I-30] | – | 80 | 90 | 90 | 80 | 90 | 90 | – | 80 | 80 | 80 | 90 | 80 | 80 | 90 | 80 | 90 | 90 | 80 | 90 | pest or weed control at 320 g/ha ([4]; 320 g/ha): 90%; pest or weed control at 320 g/ha ([5]; 320 g/ha): 90%; pest or weed control at 320 g/ha ([7]; 320 g/ha): 90%; pest or weed control at 320 g/ha [8, 15]: 90%; pest or weed control at 80 g/ha [9]: 80%; pest or weed control at 20 g/ha [10]: 80%; pest or weed control at 320 g/ha ([10]; 320 g/ha): 90%; pest or weed control at 80 g/ha ([11]; 80 g/ha): 80%; pest or weed control at 320 g/ha ([11]; 320 g/ha): 90%; pest or weed control at 320 g/ha ([12]; 320 g/ha): 90%
COC(=O)C(OC)Oc1nn(-c2cc(F)ccc2F)c(-c2cncc(F)c2)c1C1CC1 (stereo not drawn) [Example I-111] | 80 | 80 | 90 | – | 80 | 90 | 90 | 80 | 80 | 90 | 80 | 80 | 80 | – | 80 | 80 | 90 | 90 | 80 | 90 | pest or weed control at 320 g/ha ([4]; 320 g/ha): 80%; pest or weed control at 320 g/ha ([5]; 320 g/ha): 90%; pest or weed control at 80 g/ha ([6]; 80 g/ha): 90%; pest or weed control at 320 g/ha ([7]; 320 g/ha): 80%; pest or weed control at 20 g/ha ([8]; Ipomoea purpurea, 504 h, 20 g/ha, read-out: Post-emergence effect against PHBPU in %): 80%; pest or weed control at 320 g/ha [8, 15]: 90%; pest or weed control at 80 g/ha [9]: 80%; pest or weed control at 20 g/ha [10]: 80%; pest or weed control at 320 g/ha ([10]; 320 g/ha): 80%; pest or weed control at 80 g/ha ([11]; 80 g/ha): 80%; pest or weed control at 320 g/ha ([11]; 320 g/ha): 80%; pest or weed control at 320 g/ha ([12]; 320 g/ha): 80%
